According to patent publication US20160075653A1, “NEMATICIDAL N-(PHENYLCYCLOALKYL)CARBOXAMIDES AND N-(PHENYLCYCLOALKYL)THIOCARBOXAMIDES” (BAYER CROPSCIENCE AKTIENGESELLSCHAFT, priority 2013, published 2016):

Assay: Measurement of log P values by HPLC on reversed phase columns (methods [a] pH 2.3, [b] pH 2.7, [c] pH 7.8)
Type: physicochemical
Method in brief: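 Retention times were converted to log P by linear interpolation between linear alkan-2-one standards (3 to 16 carbons) of known log P. Eluents, each with 10% to 95% acetonitrile gradient: phosphoric acid 0.1% at pH 2.3 [a]; formic acid 0.1% at pH 2.7, LC-MS [b]; ammonium hydrogen carbonate 0.001 molar at pH 7.8, LC-MS [c].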

[1] = HPLC reversed phase, method [b] (pH 2.7)
[2] = HPLC on reversed phase column, method [b], pH 2.7
[3] = HPLC on reversed phase column, method [c], pH 7.8

Compound	logP [1]	logP [2]	logP [3]
O=C(N[C@@H]1C[C@@H]1c1ccc(Cl)cc1Cl)c1cccnc1C(F)(F)F (relative stereo) [Example 565]	2.85^[b]	–	–
Cc1nc(C(F)(F)F)c(C(=O)N[C@@H]2C[C@@H]2c2ccc(Cl)cc2Cl)s1 (relative stereo) [Example 568]	3.29^[b]	–	–
Cc1nc(C(F)(F)F)c(C(=O)N[C@@H]2CC[C@@H]2c2cc(F)ccc2C(F)(F)F)s1 (relative stereo) [Example 569]	3.40^[b]	–	–
Cc1nc(C(F)(F)F)c(C(=O)N[C@@H]2CC[C@@H]2c2c(F)cccc2C(F)(F)F)s1 (relative stereo) [Example 573]	3.47^[b]	–	–
O=C(N[C@@H]1C[C@@H]1c1ccc(Cl)cc1Cl)c1cccnc1 (relative stereo) [Example 583]	2.06^[b]	–	–
O=C(N[C@@H]1C[C@@H]1c1ccc(Cl)cc1Cl)c1cncnc1C(F)(F)F (relative stereo) [Example 610]	–	2.89^[b]	2.87^[c];
Cn1ncc(C(=O)N[C@@H]2C[C@@H]2c2ccc(Cl)cc2Cl)c1C(F)F (relative stereo) [Example 612]	–	2.99^[b]	2.94^[c];
O=C(N[C@@H]1C[C@@H]1c1ccc(Cl)cc1Cl)c1ccc(Cl)cc1Cl (relative stereo) [Example 613]	–	3.82^[b]	3.76^[c];
CC1=C(C(=O)N[C@@H]2C[C@@H]2c2ccc(Cl)cc2Cl)S(=O)(=O)CCO1 (relative stereo) [Example 614]	–	2.40^[b]	2.33^[c];
CC1=C(C(=O)N[C@@H]2C[C@@H]2c2ccc(Cl)cc2Cl)SCCO1 (relative stereo) [Example 615]	–	3.06^[b]	3.01^[c];

Results, then the compound that gave them:

logP [1]	logP [2]	logP [3]	Compound
3.63^[b]	–	–	O=C(N[C@@H]1CC[C@H]1c1cccc(F)c1C(F)(F)F)c1ccccc1C(F)(F)F (relative stereo) [Example 588]
3.68^[b]	–	–	O=C(N[C@@H]1CC[C@H]1c1cccc(F)c1C(F)(F)F)c1ccccc1I (relative stereo) [Example 590]
3.35^[b]	–	–	O=C(N[C@@H]1CC[C@H]1c1cccc(F)c1C(F)(F)F)c1ccccc1 (relative stereo) [Example 591]
–	3.50^[b]	–	O=C(N[C@@H]1CC[C@H]1c1cccc(F)c1C(F)(F)F)c1ccc(Cl)cc1Cl (relative stereo) [Example 593]
–	3.92^[b]	–	O=C(N[C@@H]1CC[C@H]1c1cccc(F)c1C(F)(F)F)c1cccc(Cl)c1 (relative stereo) [Example 596]
–	3.50^[b]	–	O=C(N[C@@H]1CC[C@@H]1c1cccc(F)c1C(F)(F)F)c1cccc(Cl)c1 (relative stereo) [Example 597]
–	3.88^[b]	–	O=C(N[C@@H]1CC[C@H]1c1cccc(F)c1C(F)(F)F)c1ccc(Cl)cc1 (relative stereo) [Example 600]
–	4.10^[b]	–	O=C(N[C@@H]1CC[C@H]1c1cccc(F)c1C(F)(F)F)c1ncc(C(F)(F)F)cc1Cl (relative stereo) [Example 602]
–	3.81^[b]	–	O=C(N[C@@H]1CC[C@@H]1c1cccc(F)c1C(F)(F)F)c1ncc(C(F)(F)F)cc1Cl (relative stereo) [Example 603]
–	3.30^[b]	–	O=C(N[C@@H]1CC[C@H]1c1cccc(F)c1C(F)(F)F)c1ncccc1Cl (relative stereo) [Example 616]
–	2.26^[b]	–	O=C(N[C@@H]1CC[C@H]1c1ccccc1C(F)(F)F)c1cccnc1 (relative stereo) [Example 618]
–	2.98^[b]	–	O=C(N[C@@H]1CC[C@H]1c1ccccc1C(F)(F)F)c1nccnc1Cl (relative stereo) [Example 622]
–	3.34^[b]	3.27^[c];	O=C(N[C@@H]1CC[C@H]1c1ccccc1C(F)(F)F)c1ncccc1Br (relative stereo) [Example 624]
–	3.56^[b]	–	Cc1nc(C(F)(F)F)c(C(=O)N[C@@H]2CC[C@H]2c2cccc(F)c2C(F)(F)F)s1 (relative stereo) [Example 625]
